Experimental data reported in PubChem BioAssay AID1918944 (Molecular Pharmacology Branch, DTP, NCI, 2023).
Values joined by “and” are separate entries in the source; they are usually repeats but may differ in a detail not shown here. Identical values can stand only once.

System: 786-0 complex spheroid viability
Experiment: Anticancer human tumor 786-0 cell line growth inhibition;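 also: spheroids exposed to agents for seven days before readout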
Conditions: for viability, T/C: stronger effect = lower value; active = viability on the fitted dose curve at most 10% of control; inactive = the rest
Summary of the method: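 Drug combinations with the LSD1 inhibitor iadademstat tested on tumor cells co-cultured as spheroids with endothelial cells and mesenchymal stem cells. Concentrations descended in half-log increments from clinical Cmax or 10 microM.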

[1] = curve of first compound, second compound 0.1 µM
[2] = curve of first compound, second compound 0.316 µM
[3] = curve of first compound, second compound 1 µM
[4] = curve of first compound, second compound 3.16 µM
[5] = curve of first compound, second compound 10 µM
[6] = second compound 0.1 µM, first compound 0.0316 µM
[7] = second compound 0.1 µM, first compound 0.1 µM
[8] = second compound 0.316 µM, first compound 0.0316 µM
[9] = second compound 0.316 µM, first compound 0.1 µM
[10] = second compound 1 µM, first compound 0.0316 µM
[11] = second compound 1 µM, first compound 0.1 µM
[12] = second compound 3.16 µM, first compound 0.0316 µM
[13] = second compound 3.16 µM, first compound 0.1 µM
[14] = second compound 10 µM, first compound 0.0316 µM
[15] = second compound 10 µM, first compound 0.1 µM
[16] = second compound 0.1 µM, first compound 0.00949 µM
[17] = second compound 0.1 µM, first compound 0.03 µM
[18] = second compound 0.1 µM, first compound 0.0949 µM
[19] = second compound 0.1 µM, first compound 0.3 µM
[20] = second compound 0.1 µM, first compound 0.949 µM
[21] = second compound 0.1 µM, first compound 3 µM
[22] = second compound 0.316 µM, first compound 0.00949 µM
[23] = second compound 0.316 µM, first compound 0.03 µM
[24] = second compound 0.316 µM, first compound 0.0949 µM
[25] = second compound 0.316 µM, first compound 0.3 µM
[26] = second compound 0.316 µM, first compound 0.949 µM
[27] = second compound 0.316 µM, first compound 3 µM
[28] = second compound 1 µM, first compound 0.00949 µM
[29] = second compound 1 µM, first compound 0.03 µM
[30] = second compound 1 µM, first compound 0.0949 µM
[31] = second compound 1 µM, first compound 0.3 µM
[32] = second compound 1 µM, first compound 0.949 µM
[33] = second compound 1 µM, first compound 3 µM
[34] = second compound 3.16 µM, first compound 0.00949 µM
[35] = second compound 3.16 µM, first compound 0.03 µM
[36] = second compound 3.16 µM, first compound 0.0949 µM
[37] = second compound 3.16 µM, first compound 0.3 µM
[38] = second compound 3.16 µM, first compound 0.949 µM
[39] = second compound 3.16 µM, first compound 3 µM
[40] = second compound 10 µM, first compound 0.00949 µM
[41] = second compound 10 µM, first compound 0.03 µM
[42] = second compound 10 µM, first compound 0.0949 µM
[43] = second compound 10 µM, first compound 0.3 µM
[44] = second compound 10 µM, first compound 0.949 µM
[45] = second compound 10 µM, first compound 3 µM

Cn1ncnc1C1c2n[nH]c(=O)c3cc(F)cc(c23)NC1c1ccc(F)cc1 (configuration not stated) + NC1CCC(NC2CC2c2ccccc2)CC1
inactive: viability, T/C (second compound 0.1 µM, first compound 0.000316 µM) 117% | viability, T/C (second compound 0.1 µM, first compound 0.001 µM) 114% | viability, T/C (second compound 0.1 µM, first compound 0.00316 µM) 117% | viability, T/C (second compound 0.1 µM, first compound 0.01 µM) 113% | viability, T/C [6] 109% | viability, T/C [7] 109% | viability, T/C (second compound 0.316 µM, first compound 0.000316 µM) 127% | viability, T/C (second compound 0.316 µM, first compound 0.001 µM) 118% | viability, T/C (second compound 0.316 µM, first compound 0.00316 µM) 121% | viability, T/C (second compound 0.316 µM, first compound 0.01 µM) 117% | viability, T/C [8] 115% | viability, T/C [9] 113% | viability, T/C (second compound 1 µM, first compound 0.000316 µM) 109% | viability, T/C (second compound 1 µM, first compound 0.001 µM) 115% | viability, T/C (second compound 1 µM, first compound 0.00316 µM) 114% | viability, T/C (second compound 1 µM, first compound 0.01 µM) 115% | viability, T/C [10] 110% | viability, T/C [11] 105% | viability, T/C (second compound 3.16 µM, first compound 0.000316 µM) 107% | viability, T/C (second compound 3.16 µM, first compound 0.001 µM) 106% | viability, T/C (second compound 3.16 µM, first compound 0.00316 µM) 112% | viability, T/C (second compound 3.16 µM, first compound 0.01 µM) 109% | viability, T/C [12] 106% | viability, T/C [13] 98.8% | viability, T/C (second compound 10 µM, first compound 0.000316 µM) 90.5% | viability, T/C (second compound 10 µM, first compound 0.001 µM) 88.1% | viability, T/C (second compound 10 µM, first compound 0.00316 µM) 91.5% | viability, T/C (second compound 10 µM, first compound 0.01 µM) 89.3% | viability, T/C [14] 91.5% | viability, T/C [15] 84.1%
> 0.1 µM: IC50 [1] | IC50 [2] | IC50 [3] | IC50 [4] | IC50 [5]

O=C(C=Cc1cccc(S(=O)(=O)Nc2ccccc2)c1)NO + NC1CCC(NC2CC2c2ccccc2)CC1
0.912 µM: IC50 [3]
0.942 µM: IC50 [1]
1.02 µM: IC50 [2]
0.446 µM: IC50 [5]
active: viability, T/C [21] 6.03% | viability, T/C [27] 5.39% | viability, T/C [33] 5.27% | viability, T/C [39] 6.76% | viability, T/C [45] 2.25%
0.653 µM: IC50 [4]
inactive: viability, T/C [16] 112% | viability, T/C [17] 109% | viability, T/C [18] 107% | viability, T/C [19] 99.6% | viability, T/C [20] 49.6% | viability, T/C [22] 113% | viability, T/C [23] 111% | viability, T/C [24] 112% | viability, T/C [25] 104% | viability, T/C [26] 53.2% | viability, T/C [28] 107% | viability, T/C [29] 107% | viability, T/C [30] 110% | viability, T/C [31] 92.8% | viability, T/C [32] 48.7% | viability, T/C [34] 96% | viability, T/C [35] 101% | viability, T/C [36] 93.8% | viability, T/C [37] 81.9% | viability, T/C [38] 34.8% | viability, T/C [40] 80.5% | viability, T/C [41] 77% | viability, T/C [42] 76.4% | viability, T/C [43] 60.7% | viability, T/C [44] 29.1%

NS(=O)(=O)OCC1CC(n2ccc3c(NC4CCc5ccccc54)ncnc32)CC1O (configuration not stated) + NC1CC1c1ccc(-c2cccc(O)c2)cc1
0.165 µM: IC50 [5]
0.19 µM: IC50 [1]
0.178 µM: IC50 [2]
0.168 µM: IC50 [3]
0.175 µM: IC50 [4]
inactive: viability, T/C [16] 113% | viability, T/C [17] 96.6% | viability, T/C [18] 94% | viability, T/C [19] 21% | viability, T/C [20] 9.54% | viability, T/C [21] 13.7% | viability, T/C [22] 104% | viability, T/C [23] 92.9% | viability, T/C [24] 88.5% | viability, T/C [25] 18.2% | viability, T/C [26] 9.34% | viability, T/C [27] 14.3% | viability, T/C [28] 117% | viability, T/C [29] 98.6% | viability, T/C [30] 79.1% | viability, T/C [31] 20.3% | viability, T/C [32] 9.8% | viability, T/C [33] 15.8% | viability, T/C [34] 110% | viability, T/C [35] 88.1% | viability, T/C [36] 83.4% | viability, T/C [37] 20.8% | viability, T/C [38] 10.9% | viability, T/C [39] 16.5% | viability, T/C [40] 99.9% | viability, T/C [41] 89% | viability, T/C [42] 76.6% | viability, T/C [43] 21.3% | viability, T/C [44] 13% | viability, T/C [45] 15.4%

CCN(c1cc(-c2ccc(CN3CCOCC3)cc2)cc(C(=O)NCc2c(C)cc(C)[nH]c2=O)c1C)C1CCOCC1
> 3 µM: IC50 (curve of compound)
inactive: viability, T/C (compound 0.00949 µM) 100% | viability, T/C (compound 0.03 µM) 103% and 105% | viability, T/C (compound 0.0949 µM) 106% and 100% | viability, T/C (compound 0.3 µM) 104% and 102% | viability, T/C (compound 0.949 µM) 102% and 98% | viability, T/C (compound 3 µM) 97.4% and 96.9%

CC(C)c1c(-c2ccccc2)nc2c(C#N)c[nH]n2c1=O + NC1CC1c1ccc(-c2cccc(O)c2)cc1
inactive: viability, T/C [6] 114% | viability, T/C [7] 120% | viability, T/C (second compound 0.1 µM, first compound 0.316 µM) 124% | viability, T/C (second compound 0.1 µM, first compound 1 µM) 121% | viability, T/C (second compound 0.1 µM, first compound 3.16 µM) 116% | viability, T/C (second compound 0.1 µM, first compound 10 µM) 119% | viability, T/C [8] 118% | viability, T/C [9] 117% | viability, T/C (second compound 0.316 µM, first compound 0.316 µM) 115% | viability, T/C (second compound 0.316 µM, first compound 1 µM) 121% | viability, T/C (second compound 0.316 µM, first compound 3.16 µM) 119% | viability, T/C (second compound 0.316 µM, first compound 10 µM) 115% | viability, T/C [10] 117% | viability, T/C [11] 121% | viability, T/C (second compound 1 µM, first compound 0.316 µM) 123% | viability, T/C (second compound 1 µM, first compound 1 µM) 118% | viability, T/C (second compound 1 µM, first compound 3.16 µM) 116% | viability, T/C (second compound 1 µM, first compound 10 µM) 113% | viability, T/C [12] 113% | viability, T/C [13] 113% | viability, T/C (second compound 3.16 µM, first compound 0.316 µM) 121% | viability, T/C (second compound 3.16 µM, first compound 1 µM) 121% | viability, T/C (second compound 3.16 µM, first compound 3.16 µM) 117% | viability, T/C (second compound 3.16 µM, first compound 10 µM) 116% | viability, T/C [14] 103% | viability, T/C [15] 106% | viability, T/C (second compound 10 µM, first compound 0.316 µM) 110% | viability, T/C (second compound 10 µM, first compound 1 µM) 107% | viability, T/C (second compound 10 µM, first compound 3.16 µM) 107% | viability, T/C (second compound 10 µM, first compound 10 µM) 113%
> 10 µM: IC50 [1] | IC50 [2] | IC50 [3] | IC50 [4] | IC50 [5]
